This is an account of results in paper PMC6270814, “Effects of Ursolic Acid Derivatives on Caco-2 Cells and Their Alleviating Role in Streptozocin-Induced Type 2 Diabetic Rats” (Molecules, 2014).

The subject of data set [1] is Caco-2 cells. The data set is described as follows: MTT cytotoxicity assay on Caco-2 cells. It counts as cell-based, Human. Particulars: Homo sapiens, 24 h, mean ± SD, n = 4, read-out: Inhibition Rate %. Here is the method: (§1) Human intestinal Caco-2 cells (ATCC, Rockville, MD, USA) were incubated at 37 °C in a humidified atmosphere of 5% CO2 in air. The cells were cultured in Dulbecco’s […] medium (DMEM) with 10% heat-inactivated fetal bovine serum, 1% non-essential amino acids, 1% L-glutamine, 1% penicillin/streptomycin (Gibco Life Technologies, Grand Island, NY, USA). The cells were sub-cultured at confluence by 0.05% trypsin-0.5 mM EDTA treatment before they were applied in the experiment.
(§2) A MTT test was conducted to determine the possible toxicity of UA and its derivatives to Caco-2 cells. Briefly, cells were seeded at a density of 1 × 10^4 cells/mL in a 96-well plate and incubated for 24 h. The next day, cells were incubated with vehicle (0.1% DMSO) and compounds at 100, 50, 25, 12.5 μmol/L for 24 h, and then 5 g/L MTT solution (20 μL) was added for 4 h. Absorbance at 570 nm was measured using a Multimodel Plate Reader (Infinite 200, Tecan, Mannedorf, Switzerland).

Data set [2] is described as follows: MTT cytotoxicity assay on Caco-2 cells. In kind it is cell-based, Human. Particulars: human. How it is done:
as §1, §2
On the technique in general: Formazan colour is commonly taken as a measure of viable cells.

For data set [3], the system named is STZ-induced diabetic rats. The data set can be described thus: Oxidative stress markers (GSH, SOD, MDA) in liver and kidney of STZ-induced diabetic rats. In kind it is in vivo, rat. The settings on record: 4 weeks; for GSH level in kidney: kidney of STZ diabetic rats. Here is the method:
(§3) Diabetes was induced by a single intraperitoneal injection of streptozotocin (Sigma-Aldrich, St. Louis, MO, USA) at a dose of 65 mg/kg body weight. STZ was dissolved in 0.1 M cold citrate buffer, pH 4.5. Control group were injected with citrate buffer alone. After 7 days for the development of diabetes, plasma glucose levels were determined of each rat. Rats with fasting blood glucose (FBG) range of above 16.7 mmol/L were considered as DM rats and were used for further study.
(§4) According to the body weight and plasma glucose levels the rats were divided randomly into seven groups with six rats each and treated as follows: • Group I: Normal rats treated with 0.5% CMC-Na (2 mL/200 g body weight). • Group II: Diabetic rats treated with 0.5% CMC-Na. • Group III: Diabetic rats treated with 10 mg/kg of glibenclamide. • Group IV: Diabetic rats treated with 100 mg/kg of compound 1 (UA). • Group V: Diabetic rats treated with 100 mg/kg of compound 10. • Group VI: Diabetic rats treated with 100 mg/kg of compound 11. • Group VII: Diabetic rats treated with 100 mg/kg of compound 12.
(§5) The treatment was continued daily for 28 days. Blood glucose levels and body weight were measured every week to ascertain the status of diabetes. After 4 weeks of treatment, the animals were fasted for 12 h and sacrificed by cervical dislocation under mild anaesthetization, blood was collected into heparinized tubes and centrifuged at 2,000 rpm for 10 min. Livers and kidneys were removed, washed and homogenized in ice-cold normal saline. This homogenates were centrifuged at 3,000 rpm for 10 min at 4 °C, and the supernatants were collected for the estimate of antioxidant markers.
The tissue homogenates of liver and kidney were used for the estimate of antioxidant markers. Glutathione (GSH) level was measured with 5, 5'-dithiobis-(2-nitrobenzoic acid) (DTNB) as described by Sedlak and Lindsay. Superoxide dismutase (SOD) activity was assessed according to the method of Sinha. Malondialdehyde (MDA) activity was estimated with the thiobarbituric acid method.

The test system of data set [4] is STZ-induced diabetic rats. The data set is described as follows: Serum biochemical parameters (insulin, total protein, albumin) in STZ-induced diabetic rats. It counts as in vivo, rat. The settings on record: 4 weeks, compounds 100 mg/kg, glibenclamide 10 mg/kg. How it is done:
as §3, §4, §5
(§6) Fasting blood glucose levels were estimated on days 0, 7, 14, 28 with the single touch glucometer (Life Scan, Johnson & Johnson Company, New Brunswick, NJ, USA). Serum insulin level was measured by use of a commercial immunoassay kit by enzyme linked immunosorbent assay (Uscn. Life Science Inc., Wuhan, China). Serum total protein, albumin, triglycerides (TG), total cholesterol (TC), high-density lipoprotein cholesterol (HDL-C), and low-density lipoprotein cholesterol (LDL-C) were measured with an automatic biochemical analyzer (Sinnowa D240, Nanjing, China).

The subject of data set [5] is GLUT-2. The data set is described as follows: Western blot of GLUT-2 protein expression in Caco-2 cells. In kind it is cell-based, Human. Particulars: 100 μM, 6 h. Here is the method:
(§7) Caco-2 cells were cultured on 6-well plates at a density of 1 × 10^6 cells/well for 13 days. The cells were placed in serum-free medium for 24 h prior to the treatment. Then UA and its derivatives (100 μM) were added, after 6 h incubation, the cells were immediately washed three times with ice-cold PBS and lysed in 200 μL lysis buffer. Cells were allowed to lyse on ice, and then scraped, vortexed, sonicated and stored at −80 °C for further analysis. Protein concentrations were determined as described and cell lysate was subjected to western blot analysis. Briefly, proteins with same amount were denatured in sample buffer, separated on 8% SDS-PAGE gel, and transferred onto a polyvinylidene diflouride membrane. The membranes were blocked for 1 h at 37 °C with 10% defatted milk in Tris-buffered saline (10 mM Tris-HCl, pH 7.5 and 137 mM NaCl) containing 0.05% Tween 20 (TBST). Membranes were then incubated overnight at 4 °C in blocking buffer with antibodies for GLUT-2, SGLT-1 and β-actin (EMD, Millipore, Billerica, MA, USA). Membranes were washed with TBST and incubated 1 h with appropriate secondary antibodies. Revelation was performed by using the enhanced chemiluminescence reagent and blue-light sensitive film. Densitometric analysis of films was performed with a Hewlett-Packard scanner equipped with a transparent adaptor and UN-SCAN-IT software.

Data set [6] relates to STZ-induced diabetic rats. The data set can be described thus: Body weight and daily food intake of STZ-induced diabetic rats. It counts as in vivo, rat. The settings on record: compounds 100 mg/kg, glibenclamide 10 mg/kg, oral. How it is done: as §3, §4, §5
Data set [7] concerns STZ-induced diabetic rats. The data set can be described thus: Serum lipid profile (TG, TC, LDL-C, HDL-C) in STZ-induced diabetic rats. The settings on record: 4 weeks, compounds 100 mg/kg, glibenclamide 10 mg/kg. It counts as in vivo, rat. Here is the method: as §3, §4, §5, §6
Data set [8] relates to Caco-2 cells. The data set can be described thus: 2-NBDG glucose uptake by Caco-2 cell monolayers, Na+-independent (sodium free buffer). In kind it is cell-based, Human. Particulars: 100 μM compound, Na+-independent (KCl/K2HPO4 buffer). How it is done:
Caco-2 cells, which were derived from human colon adenocarcinoma, were selected for intestinal absorption studies because these cells express the morphological characteristics and most of the functional properties of differentiated small-intestinal enterocytes. Caco-2 cells were seeded on 24-well plates at the density of 2 × 10^5 cells/well. The medium was changed every 1–2 days, and the culture was carried out for 13 days. Then Caco-2 cells were placed in serum-free media for 24 h and then they were washed twice with Hanks’ balanced salt solution (HBSS, pH 7.5, 140 mM NaCl, 5 mM KCl, 1.2 mM Na2HPO4, 2 mM CaCl2, 1.2 mM MgSO4, 20 mM HEPES, 0.2% bovine serum albumin) before the uptake studies. When a sodium free buffer was required, NaCl and Na2HPO4 were replaced with equal amounts of KCl and K2HPO4, respectively. After washing, the cells were incubated for 15 min at room temperature in HBSS before the commencement of this experiment. The uptake studies were initiated by adding HBSS containing either control or test solution (100 μM) and […] (100 μM) for 30 min at 37 °C. Glucose uptake was stopped by adding twofold volume of ice-cold PBS and the wells were washed with ice-cold PBS three times. Fluorescent intensity was measured by a Multimodel Plate Reader (Tecan Infinity 200) with the 485 nmex and 535 nmemiss filter set before and after adding 2-NBDG. Then the cells were lysed in 200 μL lysis buffer (10 mM Tris-HCl pH = 7.4, 150 mM NaCl, 1% Triton-x-100, 1 mM EDTA, 0.1% SDS) and supplemented immediately before they were processed with 10 μg/mL PMSF. Cells were allowed to lyse on ice, and then vortexed and sonicated. The lysate was used for protein determination, protein concentrations were determined as described by BCA kit (Boster, Wuhan, China) with bovine serum albumin as standard.

Data set [9] concerns STZ-induced diabetic rats. The data set can be described thus: Fasting blood glucose in STZ-induced diabetic rats, 4 weeks treatment. It counts as in vivo, rat. Particulars: STZ diabetic rats; for effect on lowering fasting blood glucose levels: 100 mg/kg, 4 weeks; for Fasting Blood Glucose Level, Week 0: Week 0 (before treatment), glibenclamide 10 mg/kg; for Fasting Blood Glucose Level, Week 0 / Fasting Blood Glucose Level, Week 1 / Fasting Blood Glucose Level, Week 2 / Fasting Blood Glucose Level, Week 3 / Fasting Blood Glucose Level, Week 4: compounds 100 mg/kg, n = 6; for Fasting Blood Glucose Level, Week 1 / Fasting Blood Glucose Level, Week 2 / Fasting Blood Glucose Level, Week 3 / Fasting Blood Glucose Level, Week 4: glibenclamide 10 mg/kg daily. Here is the method: Adult male albino rats of Sprague-Dawley rats (180–220 g) were obtained from the Guangdong Medical Lab Animal Center, and maintained under standard laboratory conditions in a temperature (25–30 °C) and light-controlled (12-h light/dark cycle) room with 35%–60% humidity. The animals were acclimatized for 10 days before the experiments and provided with rodent chow and water ad libitum. The investigation was conducted in accordance with the Guide for the Care and Use of Laboratory Animals and approved by the institutional Animal Ethics Committee.
as §3, §4, §5, §6

Data set [10] relates to SGLT-1. The data set can be described thus: Western blot of SGLT-1 protein expression in Caco-2 cells. In kind it is cell-based, Human. The settings on record: 100 μM, 6 h. How it is done: as §7, with “The membranes were blocked for 1 h at 37 °C with 10% defatted milk in Tris-buffered saline (10 mM Tris-HCl, pH 7.5 and 137 mM NaCl) containing 0.05% Tween 20 (TBST).” left out
(In western blotting, separated proteins are transferred to a membrane and probed.)

Usually inhibition stands for the share of the control response that was lost under treatment. As usually defined, the viability is a per cent measure of how many cells are alive, often set against a control. On to `CC(=O)O[C@H]1CC[C@@]2(C)C(CC[C@]3(C)C2CC=C2C4[C@@H](C)[C@H](C)CC[C@]4(C(=O)Nc4ccccc4F)CC[C@]23C)C1(C)C` (some centres unmarked) [Compound 6], for which the inhibition at 100 µM in [1] amounted to 13.9 ± 4.52%. For the same compound, in [2], the viability at 24 h, 100 µM was determined as 86.1%.

On to `CCCC(=O)O[C@H]1CC[C@@]2(C)C(CC[C@]3(C)C2CC=C2C4[C@@H](C)[C@H](C)CC[C@]4(C(=O)O)CC[C@]23C)C1(C)C` (some centres unmarked) [Compound 11], for which the “GSH level in kidney” value in data set [3] was “great effect”. For the same compound, in data set [3] (liver and kidney of STZ diabetic rats), the “SOD level in the liver and kidney” value was “great improvement”. Further, in data set [4], the “serum albumin level vs diabetic control” value is given as “no appreciable improvement”, the “serum insulin level vs diabetic control” value is listed as “non-significant effect” and the “serum total protein level vs diabetic control” value was “no appreciable improvement”. Also, the “effect on expression of protein GLUT-2” value in data set [5] is on record as “significant effects on reducing”. For the same compound, in data set [6], the “daily food intake vs untreated diabetic rats” value was “reduce daily food intake significantly”. For the same compound, in data set [7], the “serum TC level vs diabetic control” value is “significantly decreased” and the “serum TG level vs diabetic control” value is listed as “significantly decreased”. Also, the “glucose uptake, % of the control value (Na+-independent)” value in data set [8] is 74 % of the control value. Besides, the inhibition at 100 µM in [1] amounted to 2.29 ± 6.08%. For the same compound, in [9], the “effect on lowering fasting blood glucose levels” value is “no significant effect”; the “Fasting Blood Glucose Level, Week 0” value was 318.60 ± 17.64 mg/dL; the “Fasting Blood Glucose Level, Week 1” value is given as 365.40 ± 20.34 mg/dL; the “Fasting Blood Glucose Level, Week 2” value is given as 352.80 ± 27.36 mg/dL. In data set [9], the “Fasting Blood Glucose Level, Week 3” value is 324.00 ± 23.04 mg/dL and the “Fasting Blood Glucose Level, Week 4” value is 351.00 ± 26.64 mg/dL.

Turning to `CC(C)C(=O)O[C@H]1CC[C@@]2(C)C(CC[C@]3(C)C2CC=C2C4[C@@H](C)[C@H](C)CC[C@]4(C(=O)O)CC[C@]23C)C1(C)C` (some centres unmarked) [Compound 12], the “GSH level in kidney” value in [3] was “great effect”. Also, in data set [4], the “serum albumin level vs diabetic control” value was “no appreciable improvement”, the “serum insulin level vs diabetic control” value is reported as “non-significant effect” and the “serum total protein level vs diabetic control” value is on record as “no appreciable improvement”. Moreover, the “daily food intake vs untreated diabetic rats” value in [6] is recorded as “no obvious decrease”. Besides, in data set [10], the “effect on protein expression of SGLT-1” value was “significantly reduce”. In addition, the inhibition at 100 µM in data set [1] was 7.67 ± 5.36%. In addition, in data set [9], the “effect on lowering fasting blood glucose levels” value is “no significant effect”; the “Fasting Blood Glucose Level, Week 0” value came to 325.80 ± 14.58 mg/dL; the “Fasting Blood Glucose Level, Week 1” value is 392.40 ± 36.54 mg/dL; the “Fasting Blood Glucose Level, Week 2” value is 379.80 ± 30.60 mg/dL. Also, in [9], the “Fasting Blood Glucose Level, Week 3” value came to 408.60 ± 20.52 mg/dL and the “Fasting Blood Glucose Level, Week 4” value was determined as 432.00 ± 28.26 mg/dL.
